Reference: patent US12291519B2, “2-hydroxycycloalkane-1-carbamoyl” (Idorsia Pharmaceuticals Ltd, priority 2019, dated 2025)

Tests used:
[1] = molecular target: human Gal-1 (hGal-1); experiment: Competitive binding assay: biotinylated hGal-1 binding to microplate-adsorbed asialofetuin (ASF); conditions: Activity on hGal-1; binding of biotinylated hGal-1 to ASF-coated plates; mean values
Procedure, shortened: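 Biotinylated hGal-1 (300–1000 ng/mL; optionally a cysteine-free all-serine variant) incubated 3 h at 4 °C with compound on asialofetuin-coated plates, then streptavidin-peroxidase 1 h at 4 °C. ABTS readout at OD 410 nm after 30–45 min; IC50 given as mean of several runs.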

[2] = molecular target: human Gal-3 (hGal-3) (Homo sapiens (Human), UniProt P17931); experiment: Competitive binding assay: biotinylated hGal-3 binding to microplate-adsorbed asialofetuin (ASF); conditions: Activity on hGal-3; binding of biotinylated hGal-3 to ASF-coated plates; mean values
human Gal-3 (hGal-3), sequence (P17931 whole entry): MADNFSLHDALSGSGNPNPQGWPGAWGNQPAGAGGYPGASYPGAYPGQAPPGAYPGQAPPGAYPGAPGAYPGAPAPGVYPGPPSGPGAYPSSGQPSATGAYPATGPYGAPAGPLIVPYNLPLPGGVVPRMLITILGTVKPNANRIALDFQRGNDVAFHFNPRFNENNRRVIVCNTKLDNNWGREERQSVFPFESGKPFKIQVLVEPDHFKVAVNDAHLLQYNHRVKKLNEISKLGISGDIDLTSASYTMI
Procedure, shortened: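 Serially diluted compounds competed with biotinylated human Gal-3 for binding to plate-adsorbed asialofetuin over 3 h at 4 °C. Bound Gal-3 was detected with streptavidin-peroxidase (80 ng/mL, 1 h, 4 °C) and ABTS substrate. IC50 values are means of several measurements.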

human Gal-1 (hGal-1), sequence (P09382 2-135 limits assumed): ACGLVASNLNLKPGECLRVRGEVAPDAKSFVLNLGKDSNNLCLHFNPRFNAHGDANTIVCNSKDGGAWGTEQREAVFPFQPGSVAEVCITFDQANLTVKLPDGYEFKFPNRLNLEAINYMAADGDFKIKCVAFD

IC50 [1] [nM] | IC50 [2] [nM] | SMILES
181 | 12 | O=C(CO[C@@H]1[C@@H](n2cc(-c3cc(F)c(F)c(F)c3)nn2)[C@@H](O)[C@@H](CO)O[C@H]1C(=O)N(c1cc(Cl)cc(Cl)c1)[C@H]1CCCC[C@@H]1O)N1CCC(O)CC1 [Example 127, (2R,3R,4S,5R,6R)—N-(3,5-dichlorophenyl)-5-hydroxy-N-((1S,2S)-2-hydroxycyclohexyl)-6-(hydroxymethyl)-3-(2-(4-hydroxypiperidin-1-yl)-2-oxoethoxy)-4-(4-(3,4,5-trifluorophenyl)-1H-1,2,3-triazol-1-yl)tetrahydro-2H-pyran-2-carboxamide]
177 | 13 | O=C(CO[C@@H]1[C@@H](n2cc(-c3cc(F)c(F)c(F)c3)nn2)[C@@H](O)[C@@H](CO)O[C@H]1C(=O)N(c1cc(Cl)cc(Cl)c1)[C@H]1CCCC[C@@H]1O)N1CC(O)C1 [Example 128]
141 | 32 | CO[C@@H]1[C@@H](n2cc(-c3cc(F)c(F)c(Cl)c3)nn2)[C@@H](O)[C@@H](CO)O[C@H]1C(=O)N(c1cc(Cl)cc(Cl)c1)[C@H]1CCCC[C@@H]1O [Example 129, (2R,3R,4S,5R,6R)-4-(4-(3-chloro-4,5-difluorophenyl)-1H-1,2,3-triazol-1-yl)-N-(3,5-dichlorophenyl)-5-hydroxy-N-((1S,2S)-2-hydroxycyclohexyl)-6-(hydroxymethyl)-3-methoxytetrahydro-2H-pyran-2-carboxamide]
924 | 53 | CO[C@@H]1[C@@H](n2cc(-c3cc(F)c(F)c(Cl)c3)nn2)[C@@H](O)[C@@H](CO)O[C@H]1C(=O)N(c1ccc(F)c(F)c1)[C@H]1CCCC[C@@H]1O [Example 130, (2R,3R,4S,5R,6R)-4-(4-(3-chloro-4,5-difluorophenyl)-1H-1,2,3-triazol-1-yl)-N-(3,4-difluorophenyl)-5-hydroxy-N-((1S,2S)-2-hydroxycyclohexyl)-6-(hydroxymethyl)-3-methoxytetrahydro-2H-pyran-2-carboxamide]
224 | 34 | CO[C@@H]1[C@@H](n2cc(-c3cc(F)c(F)c(Cl)c3)nn2)[C@@H](O)[C@@H](CO)O[C@H]1C(=O)N(c1ccc2ncsc2c1)[C@H]1CCCC[C@@H]1O [Example 131, (2R,3R,4S,5R,6R)-N-(benzo[d]thiazol-6-yl)-4-(4-(3-chloro-4,5-difluorophenyl)-1H-1,2,3-triazol-1-yl)-5-hydroxy-N-((1S,2S)-2-hydroxycyclohexyl)-6-(hydroxymethyl)-3-methoxytetrahydro-2H-pyran-2-carboxamide]
140 | 13 | CO[C@@H]1[C@@H](n2cc(-c3cc(F)c(F)c(Cl)c3)nn2)[C@@H](O)[C@@H](CO)O[C@H]1C(=O)N(c1cc(Cl)cc(C#N)c1)[C@H]1CCCC[C@@H]1O [Example 132, (2R,3R,4S,5R,6R)-4-(4-(3-chloro-4,5-difluorophenyl)-1H-1,2,3-triazol-1-yl)-N-(3-chloro-5-cyanophenyl)-5-hydroxy-N-((1S,2S)-2-hydroxycyclohexyl)-6-(hydroxymethyl)-3-methoxytetrahydro-2H-pyran-2-carboxamide]
761 | 63 | CO[C@@H]1[C@@H](n2cc(-c3cc(F)cc(Cl)c3)nn2)[C@@H](O)[C@@H](CO)O[C@H]1C(=O)N(c1ccc(F)c(F)c1)[C@H]1CCCC[C@@H]1O [Example 134, (2R,3R,4S,5R,6R)-4-(4-(3-chloro-5-fluorophenyl)-1H-1,2,3-triazol-1-yl)-N-(3,4-difluorophenyl)-5-hydroxy-N-((1S,2S)-2-hydroxycyclohexyl)-6-(hydroxymethyl)-3-methoxytetrahydro-2H-pyran-2-carboxamide]
270 | 52 | CO[C@@H]1[C@@H](n2cc(-c3cc(F)cc(Cl)c3)nn2)[C@@H](O)[C@@H](CO)O[C@H]1C(=O)N(c1cc(F)cc(C#N)c1)[C@H]1CCCC[C@@H]1O [Example 135, (2R,3R,4S,5R,6R)-4-(4-(3-chloro-5-fluorophenyl)-1H-1,2,3-triazol-1-yl)-N-(3-cyano-5-fluorophenyl)-5-hydroxy-N-((1S,2S)-2-hydroxycyclohexyl)-6-(hydroxymethyl)-3-methoxytetrahydro-2H-pyran-2-carboxamide]
323 | 25 | CO[C@@H]1[C@@H](n2cc(-c3cc(F)cc(Cl)c3)nn2)[C@@H](O)[C@@H](CO)O[C@H]1C(=O)N(c1cc(F)cc(Br)c1)[C@H]1CCCC[C@@H]1O [Example 136, (2R,3R,4S,5R,6R)-N-(3-bromo-5-fluorophenyl)-4-(4-(3-chloro-5-fluorophenyl)-1H-1,2,3-triazol-1-yl)-5-hydroxy-N-((1S,2S)-2-hydroxycyclohexyl)-6-(hydroxymethyl)-3-methoxytetrahydro-2H-pyran-2-carboxamide]
318 | 24 | CO[C@@H]1[C@@H](n2cc(-c3cc(F)cc(Cl)c3)nn2)[C@@H](O)[C@@H](CO)O[C@H]1C(=O)N(c1cc(Br)cc(C#N)c1)[C@H]1CCCC[C@@H]1O [Example 137, (2R,3R,4S,5R,6R)-N-(3-bromo-5-cyanophenyl)-4-(4-(3-chloro-5-fluorophenyl)-1H-1,2,3-triazol-1-yl)-5-hydroxy-N-((1S,2S)-2-hydroxycyclohexyl)-6-(hydroxymethyl)-3-methoxytetrahydro-2H-pyran-2-carboxamide]
935 | 43 | CO[C@@H]1[C@@H](n2cc(-c3cc(F)cc(Cl)c3)nn2)[C@@H](O)[C@@H](CO)O[C@H]1C(=O)N(c1cccc(Br)c1)[C@H]1CCCC[C@@H]1O [Example 138, (2R,3R,4S,5R,6R)-N-(3-bromophenyl)-4-(4-(3-chloro-5-fluorophenyl)-1H-1,2,3-triazol-1-yl)-5-hydroxy-N-((1S,2S)-2-hydroxycyclohexyl)-6-(hydroxymethyl)-3-methoxytetrahydro-2H-pyran-2-carboxamide]
860 | 27 | CO[C@@H]1[C@@H](n2cc(-c3cc(F)cc(Cl)c3)nn2)[C@@H](O)[C@@H](CO)O[C@H]1C(=O)N(c1cc(Cl)cc(Cl)c1)[C@H]1CCCC[C@@H]1O [Example 139, (2R,3R,4S,5R,6R)-4-(4-(3-chloro-5-fluorophenyl)-1H-1,2,3-triazol-1-yl)-N-(3,5-dichlorophenyl)-5-hydroxy-N-((1S,2S)-2-hydroxycyclohexyl)-6-(hydroxymethyl)-3-methoxytetrahydro-2H-pyran-2-carboxamide]
671 | 33 | CO[C@@H]1[C@@H](n2cc(-c3cc(F)cc(Cl)c3)nn2)[C@@H](O)[C@@H](CO)O[C@H]1C(=O)N(c1cc(C)cc(C#N)c1)[C@H]1CCCC[C@@H]1O [Example 140, (2R,3R,4S,5R,6R)-4-(4-(3-chloro-5-fluorophenyl)-1H-1,2,3-triazol-1-yl)-N-(3-cyano-5-methylphenyl)-5-hydroxy-N-((1S,2S)-2-hydroxycyclohexyl)-6-(hydroxymethyl)-3-methoxytetrahydro-2H-pyran-2-carboxamide]
1560 | 56 | COc1cc(C#N)cc(N(C(=O)[C@@H]2O[C@H](CO)[C@H](O)[C@H](n3cc(-c4cc(F)cc(Cl)c4)nn3)[C@H]2OC)[C@H]2CCCC[C@@H]2O)c1 [Example 141, (2R,3R,4S,5R,6R)-4-(4-(3-chloro-5-fluorophenyl)-1H-1,2,3-triazol-1-yl)-N-(3-cyano-5-methoxyphenyl)-5-hydroxy-N-((1S,2S)-2-hydroxycyclohexyl)-6-(hydroxymethyl)-3-methoxytetrahydro-2H-pyran-2-carboxamide]
1670 | 77 | CO[C@@H]1[C@@H](n2cc(-c3cc(F)cc(Cl)c3)nn2)[C@@H](O)[C@@H](CO)O[C@H]1C(=O)N(c1cccc(C#N)c1)[C@H]1CCCC[C@@H]1O [Example 142, (2R,3R,4S,5R,6R)-4-(4-(3-chloro-5-fluorophenyl)-1H-1,2,3-triazol-1-yl)-N-(3-cyanophenyl)-5-hydroxy-N-((1S,2S)-2-hydroxycyclohexyl)-6-(hydroxymethyl)-3-methoxytetrahydro-2H-pyran-2-carboxamide]
1410 | 24 | CO[C@@H]1[C@@H](n2cc(-c3cc(F)cc(Cl)c3)nn2)[C@@H](O)[C@@H](CO)O[C@H]1C(=O)N(c1cccc(Cl)c1)[C@H]1CCCC[C@@H]1O [Example 143, (2R,3R,4S,5R,6R)-4-(4-(3-chloro-5-fluorophenyl)-1H-1,2,3-triazol-1-yl)-N-(3-chlorophenyl)-5-hydroxy-N-((1S,2S)-2-hydroxycyclohexyl)-6-(hydroxymethyl)-3-methoxytetrahydro-2H-pyran-2-carboxamide]
726 | 61 | CO[C@@H]1[C@@H](n2cc(-c3cc(F)cc(Br)c3)nn2)[C@@H](O)[C@@H](CO)O[C@H]1C(=O)N(c1cc(Cl)cc(Cl)c1)[C@H]1CCCC[C@@H]1O [Example 144, (2R,3R,4S,5R,6R)-4-(4-(3-bromo-5-fluorophenyl)-1H-1,2,3-triazol-1-yl)-N-(3,5-dichlorophenyl)-5-hydroxy-N-((1S,2S)-2-hydroxycyclohexyl)-6-(hydroxymethyl)-3-methoxytetrahydro-2H-pyran-2-carboxamide]
218 | 18 | CO[C@@H]1[C@@H](n2cc(-c3cc(F)cc(Br)c3)nn2)[C@@H](O)[C@@H](CO)O[C@H]1C(=O)N(c1cc(Cl)cc(C#N)c1)[C@H]1CCCC[C@@H]1O [Example 145, (2R,3R,4S,5R,6R)-4-(4-(3-bromo-5-fluorophenyl)-1H-1,2,3-triazol-1-yl)-N-(3-chloro-5-cyanophenyl)-5-hydroxy-N-((1S,2S)-2-hydroxycyclohexyl)-6-(hydroxymethyl)-3-methoxytetrahydro-2H-pyran-2-carboxamide]
